According to patent US20250186379A1, “METHODS AND AGENTS FOR DECREASING INSULIN RESISTANCE” (Whitehead Institute for Biomedical Research, priority 2021, published 2025):
Entries after “also recorded” stand apart in the source; their conditions may differ.

How the values were obtained:
Format in all cases: cell-based, human
[1] = system: transcriptional condensates at SMAD7; assay: IR-GFP and SMAD7 intronic RNA FISH colocalization in HepG2 cells
SMAD7 = SMAD7 transcript levels (RNA-seq, RT-qPCR) in HepG2 cells
Experimental: RNA was extracted using TRIzol™ reagent following the manufacturer's instructions (Thermo Fisher Scientific, 15596026). cDNA synthesis was performed using qScript cDNA Supermix according to the manufacturer's instructions, using 1000 ng RNA as input (qScript cDNA SuperMix, QuantaBio—95048-500). qPCR was performed on a Thermo Fisher Scientific QuantStudio 6 machine using Fast SYBR™ Green Master Mix (Thermo Fisher Scientific 4385618). Expression data is presented after calculating the relative expression compared with the housekeeping gene RPLP0, using the equation Relative Quantification (RQ)=100/(2^(Target Gene Ct−RPLP0Ct). When data is reported relative to a sample condition, the condition of reference was set as 1 and the data of the other conditions were reported as a ratio (condition/condition of reference).
RNA sequencing was performed by the Whitehead Institute Genome Technology Core. Libraries were prepared using the KAPA HyperPrep stranded RNA kit following manufacturer's instructions. Samples were sequenced on a HiSeq2500 in High-Output mode generating 50 bases, single-end reads.
RNA-sequencing (RNA-seq) bioinformatics analysis was performed on the Whitehead High-Performance Computing Facility using the nf-core RNA-seq pipeline v1.4.2 (81) with Nextflow v20.04.1. Quality control of .fastq files was performed with FastQC v0.11.8. The reads were single-end and the strandedness was set to reverse. Low quality sequences were trimmed using Trim Galore!v0.6.4. Alignment was performed against the hg19 genome assembly using STAR v2.6.1d (85) and duplicates were marked using Picard MarkDuplicates v2.21.1. Quantification of transcripts using featureCounts v1.6.4 (86). Differential expression analysis was performed using edgeR v3.26.5 (87). deepTools v3.3.1 (88), dupRadar v1.14.0 (89), Qualimap v.2.2.2-dev (90), and MultiQC v1.7 were used for quality control. ERCC92 was used as RNA spike-in.

[2] = system: phosphorylated IRS1 (pIRS1); assay: Imaging of phosphorylated IRS1 in IR condensates in HepG2 cells
Experimental: HepG2 cells, human liver spheroids, human primary adipocytes and human tissue liver sections were fixed in 4% PFA (VWR, BT140770-10X10) in PBS (Life Technologies, AM9625) for 10 minutes at room temperature. Cells were washed three times for 5 minutes in PBS, permeabilized with 0.5% TritonX100 (Sigma Aldrich, X100) in PBS, washed three times for 5 minutes in PBS, and then blocked with 4% IgG-free BSA (VWR, 102643-516) for 15-60 minutes at room temperature. Afterwards, the cells were incubated with 1:500 or 1:1000 primary antibody (specific antibodies listed below) in 4% IgG-free BSA in PBS at 4° C. overnight. […]
To quantify pIRS1 fluorescent signal in IR puncta/condensates manually, Airyscan images were opened on Fiji as composite images. A circle or an oval was drawn around IR puncta using the oval selection tool and the average fluorescence intensity of pIRS1 in the circle or oval (=in the puncta/condensates) was determined using the measure tool on Fiji.
To quantify pIRS1 fluorescent signal in IR puncta/condensates computationally using Fiji, 3D object counter tool was used. […] 3D object counter tool then determined the intensity pIRS1 channel in the identified IR puncta. pIRS1 signal intensity was then background subtracted by a threshold determined by averaging the background intensity in a rectangular region outside of the cells.

[3] = insulin resistant cells, acute insulin stimulation

Compound	levels of IR in transcriptional condensates at SMAD7 [1, 3]	colocalization of IR-containing condensates with SMAD7 nascent RNA ([1]; insulin sensitive cells, 0 nM versus 3 nM insulin)	SMAD7 gene expression (SMAD7; [3])	SMAD7 expression (SMAD7; insulin sensitive cells, before and after insulin stimulation (RNA-seq))	intensity of pIRS1 at IR condensates ([2]; insulin-sensitive HepG2 cells, 3 nM insulin 5 min (FIG. 17F))	IR levels in SMAD7 transcriptional condensates ([1]; metformin-treated insulin resistant cells, 3 nM insulin 5 min (FIG. 5D))	SMAD7 gene expression (SMAD7; metformin-treated insulin resistant cells)	levels of phosphorylated IRS1 in IR-containing condensates ([2]; insulin-resistant cells + metformin, 3 nM insulin 5 min (FIG. 18C))
insulin: insulin (Sigma Aldrich, I9278-5ML) used for acute stimulation and chronic physiological or pathological exposure	did not increase the levels of IR in transcriptional condensates; also recorded: did not cause increased levels of IR in transcriptional condensates	increased colocalization	nor did it cause upregulation of SMAD7 gene expression; also recorded: nor did it upregulate SMAD7 gene expression	upregulated	increased			
CN(C)C(=N)N=C(N)N [metformin, reference compound]						increased	elevated	partially rescued
